# Experimental data: PubChem BioAssay (NCI)
#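 Step 1: Grow cells in 96-well plates. Step 2: Expose to compound for 48 hours at 5 concentrations. Step 3: Interpolate endpoints linearly; if unreached, use highest concentration. Abbreviation: GI50, concentration required for 50% inhibition of growth. TGI: total growth inhibition.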
# How the values were obtained:
# Assay in all cases: NCI anticancer screen, dose series, 48 h
# SK-MEL-28 melanoma = test system: SK-MEL-28 melanoma
# TK-10 renal = test system: TK-10 renal
# UACC-62 melanoma = test system: UACC-62 melanoma
# SN12C renal = test system: SN12C renal
# ACHN renal = test system: ACHN renal
# PC-3 prostate = test system: PC-3 prostate
# KM12 colon = test system: KM12 colon
# A549 NSCLC = test system: A549 NSCLC
# HOP-62 NSCLC = test system: HOP-62 NSCLC
# HOP-92 NSCLC = test system: HOP-92 NSCLC
SMILES,GI50 (SK-MEL-28 melanoma) [µM],TGI (SK-MEL-28 melanoma) [µM],GI50 (TK-10 renal) [µM],TGI (TK-10 renal) [µM],GI50 (UACC-62 melanoma) [µM],TGI (UACC-62 melanoma) [µM],GI50 (SN12C renal) [µM],TGI (SN12C renal) [µM],GI50 (ACHN renal) [µM],TGI (ACHN renal) [µM],GI50 (PC-3 prostate) [µM],TGI (PC-3 prostate) [µM],TGI (KM12 colon) [µM],TGI (A549 NSCLC) [µM],TGI (HOP-62 NSCLC) [µM],TGI (HOP-92 NSCLC) [µM]
Fc1ccc2[nH]cc(-c3nc(-c4c[nH]c5ccncc45)cs3)c2c1,1.9,3.33,2.3,3.91,1.72,3.2,1.52,2.92,1.61,2.97,1.47,2.99,–,–,–,–
COc1ccc(N2CN(C)CSC2=S)cc1,–,> 100,–,> 100,–,> 100,–,> 100,–,> 100,–,> 100,> 100,> 100,61.5,–
C/C(=N/NC(=S)N(C)C)c1ccccc1O,–,> 100,–,> 100,–,27,–,> 100,–,> 76.5,–,> 100,> 100,> 100,> 100,> 100
COc1ccc(C(=O)c2c(-c3ccccc3NC(=O)C(F)(F)F)[nH]c3ccccc23)cc1,–,27.6,–,24.9,–,25.8,–,28.3,–,11.6,–,17.3,21.8,20.2,22.1,27.6
COc1cc(NS(C)(=O)=O)ccc1NCc1cnc2ccc3[nH]cccc3c12,–,60.9,–,> 81.8,–,35.8,–,67.4,–,69.2,–,42.3,37.6,> 96.3,55.6,93.9
Cn1c(=O)c2c(nc3n2CCC(=O)N3CCCCl)n(C)c1=O,–,> 100,–,> 100,–,> 100,–,> 100,–,> 100,–,> 100,> 100,> 100,> 100,> 100
COc1cc(S(=O)(=O)Nc2ccc(-c3csc(N4C(=O)C(Cl)C4c4cccc(Oc5ccccc5)c4)n3)cc2)ccc1Cl (stereo not given),–,79.8,–,–,–,53.4,–,30.2,–,57.1,–,30.8,73.9,> 100,> 100,37.4
Clc1ccc2nc3n[nH]c(Cl)c3nc2c1,–,> 100,–,> 100,–,> 100,–,> 100,–,> 100,–,> 100,> 100,> 100,> 100,–
O=S(c1ccccc1)C1CC2CC3(CCC21O)OCCO3 (stereo not given),–,> 100,–,> 100,–,> 100,–,–,–,> 100,–,> 100,> 100,> 100,> 100,> 100
CCNC(=O)NNc1ncnc2c1c(-c1ccc(Cl)cc1)cn2-c1ccc(C)cc1,–,33.3,–,81,–,33.3,–,30.3,–,41.9,–,38.6,35,37.2,35.2,34
CCOC(=O)C1(C#N)C2(C#N)C(N)=NC(ON=C(C)C)(ON=C(C)C)C12C#N (stereo not given),–,> 100,–,> 100,–,> 100,–,> 100,–,> 100,–,> 100,> 100,> 100,> 100,> 100
CCCCCCCCCC(O)CC(=O)c1c(O)cccc1O (stereo not given),–,> 100,–,45.7,–,–,–,63.9,–,53.7,–,36.4,40.8,55.1,33.1,64.8
Cc1nc2ccccc2c(=O)n1NC(=O)c1ccccc1[N+](=O)[O-],–,> 100,–,> 100,–,> 100,–,> 100,–,> 100,–,> 100,> 100,> 100,> 100,> 100
Nc1nc(Nc2ccc(Cl)cc2)sc1C(=O)c1c[nH]c2ccccc12,–,39.8,–,31.8,–,28,–,29,–,36.2,–,27.9,51.1,29.5,46.9,36.2
CC(C(=O)NCCNC(=O)CCC(=O)N(C)O)C(=O)NCCNC(=O)CCC(=O)N(C)O,–,> 100,–,> 100,–,> 100,–,–,–,> 100,–,> 100,> 100,> 100,> 100,> 100
CC(=O)OC12CC(C(F)(F)F)(C(F)(F)F)OC1(OC(C)=O)CC(C(F)(F)F)(C(F)(F)F)O2 (stereo not given),–,> 100,–,> 100,–,> 100,–,> 100,–,2.38,–,> 100,11.5,5.6,> 100,–
Nc1nc2c(c(-c3ccccc3Cl)n1)COC/C2=C\c1ccccc1Cl,–,–,–,31.9,–,30.6,–,31.3,–,32.3,–,27.4,41.8,–,32.2,29
CSc1c2c(C)n[nH]c2nn1-c1ccccc1,–,> 100,–,> 100,–,> 100,–,> 100,–,–,–,> 100,> 100,> 100,–,–
c1ccc(C(c2cccc3c2ccc2ccccc23)C(c2ccccc2)c2cccc3c2ccc2ccccc23)cc1 (stereo not given),–,> 100,–,> 100,–,> 100,–,> 100,–,> 100,–,> 100,> 100,> 100,> 100,> 100
N/C(=N\NC(=O)c1nc2ccccc2s1)c1ccccn1,–,> 100,–,> 100,–,19.5,–,18,–,16.5,–,> 100,> 100,> 52.7,> 57.6,> 100
Nc1ncnc2c1ncn2C1OC(CO)C(O)C1NS(=O)(=O)c1ccccc1 (stereo not given),–,> 100,–,> 100,–,> 100,–,> 100,–,> 100,–,> 100,> 100,> 100,> 100,> 100
CC(C)(C)c1cc(C(=O)C2Cc3ccccc3C(=O)O2)cc(C(C)(C)C)c1O (stereo not given),–,36.8,–,28.6,–,26.3,–,26.5,–,40.3,–,28.2,32.1,54.4,30.8,45.3
